Numbers after ± are expanded uncertainties.
Assay: mn = molality of the nth substance listed, in mol/kg
Settings: 101 kPa, Liquid

## C1COCCOCCOCCOCCOCCO1 [1,4,7,10,13,16-hexaoxacyclooctadecane] + O
293.15 K, m1 = 0.09578
  mass density: 1002.26 ± 0.6 kg/m3
293.15 K, m1 = 0.1953
  mass density: 1006.34 ± 0.62 kg/m3
293.15 K, m1 = 0.4197
  mass density: 1015.08 ± 0.64 kg/m3
293.15 K, m1 = 0.5091
  mass density: 1018.38 ± 0.65 kg/m3
293.15 K, m1 = 0.6046
  mass density: 1021.8 ± 0.66 kg/m3
293.15 K, m1 = 0.7192
  mass density: 1025.77 ± 0.67 kg/m3
293.15 K, m1 = 0.8244
  mass density: 1029.28 ± 0.68 kg/m3
293.15 K, m1 = 0.9881
  mass density: 1034.49 ± 0.7 kg/m3
293.15 K, m1 = 1.13
  mass density: 1038.8 ± 0.71 kg/m3
293.15 K, m1 = 1.296
  mass density: 1043.56 ± 0.72 kg/m3
293.15 K, m1 = 1.484
  mass density: 1048.63 ± 0.74 kg/m3
293.15 K, m1 = 1.643
  mass density: 1052.69 ± 0.75 kg/m3
293.15 K, m1 = 2.189
  mass density: 1064.99 ± 0.79 kg/m3
293.15 K, m1 = 2.803
  mass density: 1076.32 ± 0.83 kg/m3
295.15 K, m1 = 0.09578
  mass density: 1001.8 ± 0.6 kg/m3
295.15 K, m1 = 0.1953
  mass density: 1005.85 ± 0.61 kg/m3
295.15 K, m1 = 0.4197
  mass density: 1014.51 ± 0.64 kg/m3
295.15 K, m1 = 0.5091
  mass density: 1017.79 ± 0.65 kg/m3
295.15 K, m1 = 0.6046
  mass density: 1021.17 ± 0.66 kg/m3
295.15 K, m1 = 0.7192
  mass density: 1025.1 ± 0.67 kg/m3
295.15 K, m1 = 0.8244
  mass density: 1028.57 ± 0.68 kg/m3
295.15 K, m1 = 0.9881
  mass density: 1033.73 ± 0.69 kg/m3
295.15 K, m1 = 1.13
  mass density: 1037.98 ± 0.71 kg/m3
295.15 K, m1 = 1.296
  mass density: 1042.68 ± 0.72 kg/m3
295.15 K, m1 = 1.484
  mass density: 1047.68 ± 0.74 kg/m3
295.15 K, m1 = 1.643
  mass density: 1051.69 ± 0.75 kg/m3
295.15 K, m1 = 2.189
  mass density: 1063.83 ± 0.79 kg/m3
295.15 K, m1 = 2.803
  mass density: 1075.11 ± 0.83 kg/m3
297.15 K, m1 = 0.09578
  mass density: 1001.29 ± 0.6 kg/m3
297.15 K, m1 = 0.1953
  mass density: 1005.3 ± 0.61 kg/m3
297.15 K, m1 = 0.4197
  mass density: 1013.88 ± 0.64 kg/m3
297.15 K, m1 = 0.5091
  mass density: 1017.12 ± 0.65 kg/m3
297.15 K, m1 = 0.6046
  mass density: 1020.48 ± 0.66 kg/m3
297.15 K, m1 = 0.7192
  mass density: 1024.37 ± 0.67 kg/m3
297.15 K, m1 = 0.8244
  mass density: 1027.8 ± 0.68 kg/m3
297.15 K, m1 = 0.9881
  mass density: 1032.91 ± 0.69 kg/m3
297.15 K, m1 = 1.13
  mass density: 1037.12 ± 0.7 kg/m3
297.15 K, m1 = 1.296
  mass density: 1041.78 ± 0.72 kg/m3
297.15 K, m1 = 1.484
  mass density: 1046.73 ± 0.73 kg/m3
297.15 K, m1 = 1.643
  mass density: 1050.69 ± 0.75 kg/m3
297.15 K, m1 = 2.189
  mass density: 1062.7 ± 0.79 kg/m3
297.15 K, m1 = 2.803
  mass density: 1073.77 ± 0.82 kg/m3
298.15 K, m1 = 0.0001
  mass density: 997.047 ± 0.6 kg/m3
298.15 K, m1 = 0.09578
  mass density: 1000.98 ± 0.6 kg/m3
298.15 K, m1 = 0.0958
  mass density: 1000.98 ± 0.6 kg/m3
  speed of sound: 1512.5 ± 2.2 m/s
298.15 K, m1 = 0.1953
  mass density: 1004.95 ± 0.61 kg/m3
  speed of sound: 1527.2 ± 2.2 m/s
298.15 K, m1 = 0.4197
  mass density: 1013.44 ± 0.64 kg/m3
  speed of sound: 1557.3 ± 2.3 m/s
298.15 K, m1 = 0.5091
  mass density: 1016.66 ± 0.64 kg/m3
  speed of sound: 1568.3 ± 2.3 m/s
298.15 K, m1 = 0.6046
  mass density: 1019.99 ± 0.65 kg/m3
  speed of sound: 1579.6 ± 2.3 m/s
298.15 K, m1 = 0.7192
  mass density: 1023.86 ± 0.67 kg/m3
  speed of sound: 1592.7 ± 2.3 m/s
298.15 K, m1 = 0.8244
  mass density: 1027.28 ± 0.68 kg/m3
  speed of sound: 1604.2 ± 2.3 m/s
298.15 K, m1 = 0.9881
  mass density: 1032.37 ± 0.69 kg/m3
  speed of sound: 1621.4 ± 2.3 m/s
298.15 K, m1 = 1.13
  mass density: 1036.57 ± 0.7 kg/m3
  speed of sound: 1635.5 ± 2.3 m/s
298.15 K, m1 = 1.296
  mass density: 1041.22 ± 0.72 kg/m3
  speed of sound: 1651.2 ± 2.3 m/s
298.15 K, m1 = 1.484
  mass density: 1046.16 ± 0.73 kg/m3
  speed of sound: 1667.6 ± 2.4 m/s
298.15 K, m1 = 1.643
  mass density: 1050.12 ± 0.74 kg/m3
  speed of sound: 1680.3 ± 2.4 m/s
298.15 K, m1 = 2.189
  mass density: 1062.06 ± 0.78 kg/m3
  speed of sound: 1714.6 ± 2.4 m/s
298.15 K, m1 = 2.803
  mass density: 1073.02 ± 0.82 kg/m3
  speed of sound: 1742.3 ± 2.4 m/s
299.15 K, m1 = 0.09578
  mass density: 1000.71 ± 0.6 kg/m3
299.15 K, m1 = 0.1953
  mass density: 1004.66 ± 0.61 kg/m3
299.15 K, m1 = 0.4197
  mass density: 1013.12 ± 0.64 kg/m3
299.15 K, m1 = 0.5091
  mass density: 1016.33 ± 0.64 kg/m3
299.15 K, m1 = 0.6046
  mass density: 1019.64 ± 0.65 kg/m3
299.15 K, m1 = 0.7192
  mass density: 1023.49 ± 0.66 kg/m3
299.15 K, m1 = 0.8244
  mass density: 1026.89 ± 0.67 kg/m3
299.15 K, m1 = 0.9881
  mass density: 1031.95 ± 0.69 kg/m3
299.15 K, m1 = 1.13
  mass density: 1036.13 ± 0.7 kg/m3
299.15 K, m1 = 1.296
  mass density: 1040.75 ± 0.72 kg/m3
299.15 K, m1 = 1.484
  mass density: 1045.66 ± 0.73 kg/m3
299.15 K, m1 = 1.643
  mass density: 1049.6 ± 0.74 kg/m3
299.15 K, m1 = 2.189
  mass density: 1061.5 ± 0.78 kg/m3
299.15 K, m1 = 2.803
  mass density: 1072.41 ± 0.82 kg/m3
301.15 K, m1 = 0.09578
  mass density: 1000.12 ± 0.6 kg/m3
301.15 K, m1 = 0.1953
  mass density: 1004.02 ± 0.61 kg/m3
301.15 K, m1 = 0.4197
  mass density: 1012.39 ± 0.63 kg/m3
301.15 K, m1 = 0.5091
  mass density: 1015.56 ± 0.64 kg/m3
301.15 K, m1 = 0.6046
  mass density: 1018.84 ± 0.65 kg/m3
301.15 K, m1 = 0.7192
  mass density: 1022.65 ± 0.66 kg/m3
301.15 K, m1 = 0.8244
  mass density: 1026.01 ± 0.67 kg/m3
301.15 K, m1 = 0.9881
  mass density: 1031.02 ± 0.69 kg/m3
301.15 K, m1 = 1.13
  mass density: 1035.15 ± 0.7 kg/m3
301.15 K, m1 = 1.296
  mass density: 1039.72 ± 0.71 kg/m3
301.15 K, m1 = 1.484
  mass density: 1044.59 ± 0.73 kg/m3
301.15 K, m1 = 1.643
  mass density: 1048.48 ± 0.74 kg/m3
301.15 K, m1 = 2.189
  mass density: 1060.24 ± 0.78 kg/m3
301.15 K, m1 = 2.803
  mass density: 1071.01 ± 0.81 kg/m3
303.15 K, m1 = 0.09578
  mass density: 999.519 ± 0.6 kg/m3
303.15 K, m1 = 0.1953
  mass density: 1003.4 ± 0.61 kg/m3
303.15 K, m1 = 0.4197
  mass density: 1011.69 ± 0.63 kg/m3
303.15 K, m1 = 0.5091
  mass density: 1014.82 ± 0.64 kg/m3
303.15 K, m1 = 0.6046
  mass density: 1018.06 ± 0.65 kg/m3
303.15 K, m1 = 0.7192
  mass density: 1021.82 ± 0.66 kg/m3
303.15 K, m1 = 0.8244
  mass density: 1025.14 ± 0.67 kg/m3
303.15 K, m1 = 0.9881
  mass density: 1030.1 ± 0.68 kg/m3
303.15 K, m1 = 1.13
  mass density: 1034.18 ± 0.7 kg/m3
303.15 K, m1 = 1.296
  mass density: 1038.71 ± 0.71 kg/m3
303.15 K, m1 = 1.484
  mass density: 1043.54 ± 0.72 kg/m3
303.15 K, m1 = 1.643
  mass density: 1047.4 ± 0.74 kg/m3
303.15 K, m1 = 2.189
  mass density: 1059.05 ± 0.77 kg/m3
303.15 K, m1 = 2.803
  mass density: 1069.62 ± 0.81 kg/m3
308.15 K, m1 = 0.09578
  mass density: 997.836 ± 0.6 kg/m3
308.15 K, m1 = 0.1953
  mass density: 1001.65 ± 0.6 kg/m3
308.15 K, m1 = 0.4197
  mass density: 1009.76 ± 0.62 kg/m3
308.15 K, m1 = 0.5091
  mass density: 1012.82 ± 0.63 kg/m3
308.15 K, m1 = 0.6046
  mass density: 1015.99 ± 0.64 kg/m3
308.15 K, m1 = 0.7192
  mass density: 1019.66 ± 0.65 kg/m3
308.15 K, m1 = 0.8244
  mass density: 1022.9 ± 0.66 kg/m3
308.15 K, m1 = 0.9881
  mass density: 1027.73 ± 0.68 kg/m3
308.15 K, m1 = 1.13
  mass density: 1031.7 ± 0.69 kg/m3
308.15 K, m1 = 1.296
  mass density: 1036.12 ± 0.7 kg/m3
308.15 K, m1 = 1.484
  mass density: 1040.81 ± 0.72 kg/m3
308.15 K, m1 = 1.643
  mass density: 1044.56 ± 0.73 kg/m3
308.15 K, m1 = 2.189
  mass density: 1055.88 ± 0.76 kg/m3
308.15 K, m1 = 2.803
  mass density: 1066.1 ± 0.8 kg/m3
313.15 K, m1 = 0.09578
  mass density: 995.959 ± 0.61 kg/m3
313.15 K, m1 = 0.1953
  mass density: 999.701 ± 0.6 kg/m3
313.15 K, m1 = 0.4197
  mass density: 1007.65 ± 0.62 kg/m3
313.15 K, m1 = 0.5091
  mass density: 1010.65 ± 0.63 kg/m3
313.15 K, m1 = 0.6046
  mass density: 1013.74 ± 0.64 kg/m3
313.15 K, m1 = 0.7192
  mass density: 1017.33 ± 0.65 kg/m3
313.15 K, m1 = 0.8244
  mass density: 1020.49 ± 0.66 kg/m3
313.15 K, m1 = 0.9881
  mass density: 1025.21 ± 0.67 kg/m3
313.15 K, m1 = 1.13
  mass density: 1029.09 ± 0.68 kg/m3
313.15 K, m1 = 1.296
  mass density: 1033.4 ± 0.69 kg/m3
313.15 K, m1 = 1.484
  mass density: 1037.98 ± 0.71 kg/m3
313.15 K, m1 = 1.643
  mass density: 1041.64 ± 0.72 kg/m3
313.15 K, m1 = 2.189
  mass density: 1052.65 ± 0.75 kg/m3
313.15 K, m1 = 2.803
  mass density: 1062.5 ± 0.79 kg/m3
